{
  "source": "PubChem BioAssay (NCI)",
  "assay_in_all_cases": "NCI tumour cell line growth inhibition, 48 h",
  "key": {"[1]": {"tested_on": "BT-549 breast"}, "[2]": {"tested_on": "COLO 205 colon"}, "[3]": {"tested_on": "DU-145 prostate"}, "[4]": {"tested_on": "EKVX NSCLC"}, "[5]": {"tested_on": "HL-60(TB) leukemia"}, "[6]": {"tested_on": "HOP-62 NSCLC"}, "[7]": {"tested_on": "HOP-92 NSCLC"}, "[8]": {"tested_on": "IGROV1 ovarian"}, "[9]": {"tested_on": "M14 melanoma"}, "[10]": {"tested_on": "MALME-3M melanoma"}, "[11]": {"tested_on": "MCF7 breast"}, "[12]": {"tested_on": "MDA-N"}, "[13]": {"tested_on": "MOLT-4 leukemia"}, "[14]": {"tested_on": "NCI-H23 lung"}, "[15]": {"tested_on": "NCI-H522 lung"}, "[16]": {"tested_on": "OVCAR-5 ovarian"}, "[17]": {"tested_on": "SF-268 CNS"}, "[18]": {"tested_on": "SK-MEL-2 melanoma"}, "[19]": {"tested_on": "SK-MEL-28 melanoma"}, "[20]": {"tested_on": "SK-MEL-5 melanoma"}, "[21]": {"tested_on": "SK-OV-3 ovarian"}, "[22]": {"tested_on": "SR leukemia"}, "[23]": {"tested_on": "UACC-257 melanoma"}, "[24]": {"tested_on": "UACC-62 melanoma"}, "[25]": {"tested_on": "UO-31 renal"}, "[26]": {"tested_on": "786-0 renal"}, "[27]": {"tested_on": "A498 renal"}, "[28]": {"tested_on": "A549 NSCLC"}, "[29]": {"tested_on": "ACHN renal"}, "[30]": {"tested_on": "CAKI-1 renal"}, "[31]": {"tested_on": "CCRF-CEM leukemia"}, "[32]": {"tested_on": "HCC-2998 colon"}, "[33]": {"tested_on": "HCT-116 colon"}, "[34]": {"tested_on": "HCT-15 colon"}, "[35]": {"tested_on": "HS 578T breast"}, "[36]": {"tested_on": "HT29 colon"}, "[37]": {"tested_on": "K-562 leukemia"}, "[38]": {"tested_on": "KM12 colon"}, "[39]": {"tested_on": "LOX IMVI melanoma"}, "[40]": {"tested_on": "MDA-MB-231 breast"}, "[41]": {"tested_on": "MDA-MB-435"}, "[42]": {"tested_on": "NCI-H226 lung"}, "[43]": {"tested_on": "NCI-H460 lung"}, "[44]": {"tested_on": "OVCAR-3 ovarian"}, "[45]": {"tested_on": "OVCAR-4 ovarian"}, "[46]": {"tested_on": "OVCAR-8 ovarian"}, "[47]": {"tested_on": "PC-3 prostate"}, "[48]": {"tested_on": "RPMI-8226 leukemia"}, "[49]": {"tested_on": "RXF 393 renal"}, "[50]": {"tested_on": "SF-295 CNS"}, "[51]": {"tested_on": "SF-539 CNS"}, "[52]": {"tested_on": "SN12C renal"}, "[53]": {"tested_on": "SNB-19 CNS"}, "[54]": {"tested_on": "SNB-75 CNS"}, "[55]": {"tested_on": "SW-620 colon"}, "[56]": {"tested_on": "T-47D breast"}, "[57]": {"tested_on": "TK-10 renal"}, "[58]": {"tested_on": "U251 CNS"}},
  "note": "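Step 1: Grow cells in 96-well plates. Step 2: Expose to compound for 48 hours at 5 concentrations. Step 3: Interpolate endpoints linearly; if unreached, use highest concentration. At the TGI there is no net growth.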",
  "data": [
    {"smiles": "CC1(C)[C@H](O)CC[C@]2(C)C3=CC[C@@]4(C)[C@@H]5C[C@](C)(CO)CC[C@]5(C)CC[C@]4(C)C3=CC[C@@H]12", "values": [
      {"measurement": "TGI", "setting": "[1]", "result": "> 100", "unit": "µM"},
      {"measurement": "TGI", "setting": "[2]", "result": "> 100", "unit": "µM"},
      {"measurement": "TGI", "setting": "[3]", "result": "> 100", "unit": "µM"},
      {"measurement": "TGI", "setting": "[4]", "result": "> 100", "unit": "µM"},
      {"measurement": "TGI", "setting": "[5]", "result": "> 100", "unit": "µM"},
      {"measurement": "TGI", "setting": "[6]", "result": "> 100", "unit": "µM"},
      {"measurement": "TGI", "setting": "[7]", "result": "> 100", "unit": "µM"},
      {"measurement": "TGI", "setting": "[8]", "result": "> 100", "unit": "µM"},
      {"measurement": "TGI", "setting": "[9]", "result": "> 100", "unit": "µM"},
      {"measurement": "TGI", "setting": "[10]", "result": "> 100", "unit": "µM"},
      {"measurement": "TGI", "setting": "[11]", "result": "> 100", "unit": "µM"},
      {"measurement": "TGI", "setting": "[12]", "result": "> 100", "unit": "µM"},
      {"measurement": "TGI", "setting": "[13]", "result": "> 100", "unit": "µM"},
      {"measurement": "TGI", "setting": "[14]", "result": "> 100", "unit": "µM"},
      {"measurement": "TGI", "setting": "[15]", "result": "> 100", "unit": "µM"},
      {"measurement": "TGI", "setting": "[16]", "result": "> 100", "unit": "µM"},
      {"measurement": "TGI", "setting": "[17]", "result": "> 100", "unit": "µM"},
      {"measurement": "TGI", "setting": "[18]", "result": "> 100", "unit": "µM"},
      {"measurement": "TGI", "setting": "[19]", "result": "> 100", "unit": "µM"},
      {"measurement": "TGI", "setting": "[20]", "result": "> 100", "unit": "µM"},
      {"measurement": "TGI", "setting": "[21]", "result": "> 100", "unit": "µM"},
      {"measurement": "TGI", "setting": "[22]", "result": 4.72, "unit": "µM"},
      {"measurement": "TGI", "setting": "[23]", "result": "> 100", "unit": "µM"},
      {"measurement": "TGI", "setting": "[24]", "result": "> 100", "unit": "µM"},
      {"measurement": "TGI", "setting": "[25]", "result": 3.62, "unit": "µM"}
    ]},
    {"smiles": "O=[N+]([O-])C(=C1Nc2ccccc2N1)C(Cl)=C(Cl)Cl", "values": [
      {"measurement": "TGI", "setting": "[26]", "result": "> 100", "unit": "µM"},
      {"measurement": "TGI", "setting": "[27]", "result": "> 100", "unit": "µM"},
      {"measurement": "TGI", "setting": "[28]", "result": "> 100", "unit": "µM"},
      {"measurement": "TGI", "setting": "[29]", "result": "> 100", "unit": "µM"},
      {"measurement": "TGI", "setting": "[30]", "result": "> 100", "unit": "µM"},
      {"measurement": "TGI", "setting": "[31]", "result": 76, "unit": "µM"},
      {"measurement": "TGI", "setting": "[2]", "result": "> 100", "unit": "µM"},
      {"measurement": "TGI", "setting": "[3]", "result": "> 100", "unit": "µM"},
      {"measurement": "TGI", "setting": "[4]", "result": "> 100", "unit": "µM"},
      {"measurement": "TGI", "setting": "[32]", "result": "> 100", "unit": "µM"},
      {"measurement": "TGI", "setting": "[33]", "result": "> 100", "unit": "µM"},
      {"measurement": "TGI", "setting": "[34]", "result": "> 100", "unit": "µM"},
      {"measurement": "TGI", "setting": "[5]", "result": "> 100", "unit": "µM"},
      {"measurement": "TGI", "setting": "[6]", "result": "> 100", "unit": "µM"},
      {"measurement": "TGI", "setting": "[7]", "result": "> 100", "unit": "µM"},
      {"measurement": "TGI", "setting": "[35]", "result": "> 100", "unit": "µM"},
      {"measurement": "TGI", "setting": "[36]", "result": "> 100", "unit": "µM"},
      {"measurement": "TGI", "setting": "[8]", "result": "> 100", "unit": "µM"},
      {"measurement": "TGI", "setting": "[37]", "result": "> 100", "unit": "µM"},
      {"measurement": "TGI", "setting": "[38]", "result": "> 100", "unit": "µM"},
      {"measurement": "TGI", "setting": "[39]", "result": "> 100", "unit": "µM"},
      {"measurement": "TGI", "setting": "[9]", "result": "> 100", "unit": "µM"},
      {"measurement": "TGI", "setting": "[10]", "result": "> 100", "unit": "µM"},
      {"measurement": "TGI", "setting": "[11]", "result": "> 100", "unit": "µM"},
      {"measurement": "TGI", "setting": "[40]", "result": 90.3, "unit": "µM"},
      {"measurement": "TGI", "setting": "[41]", "result": "> 100", "unit": "µM"},
      {"measurement": "TGI", "setting": "[12]", "result": "> 100", "unit": "µM"},
      {"measurement": "TGI", "setting": "[13]", "result": 56.3, "unit": "µM"},
      {"measurement": "TGI", "setting": "[42]", "result": "> 100", "unit": "µM"},
      {"measurement": "TGI", "setting": "[14]", "result": "> 100", "unit": "µM"},
      {"measurement": "TGI", "setting": "[43]", "result": "> 100", "unit": "µM"},
      {"measurement": "TGI", "setting": "[15]", "result": "> 100", "unit": "µM"},
      {"measurement": "TGI", "setting": "[44]", "result": 53.1, "unit": "µM"},
      {"measurement": "TGI", "setting": "[45]", "result": "> 100", "unit": "µM"},
      {"measurement": "TGI", "setting": "[16]", "result": "> 100", "unit": "µM"},
      {"measurement": "TGI", "setting": "[46]", "result": "> 100", "unit": "µM"},
      {"measurement": "TGI", "setting": "[47]", "result": "> 100", "unit": "µM"},
      {"measurement": "TGI", "setting": "[48]", "result": "> 100", "unit": "µM"},
      {"measurement": "TGI", "setting": "[49]", "result": "> 100", "unit": "µM"},
      {"measurement": "TGI", "setting": "[17]", "result": "> 100", "unit": "µM"},
      {"measurement": "TGI", "setting": "[50]", "result": "> 100", "unit": "µM"},
      {"measurement": "TGI", "setting": "[51]", "result": "> 100", "unit": "µM"},
      {"measurement": "TGI", "setting": "[18]", "result": "> 100", "unit": "µM"},
      {"measurement": "TGI", "setting": "[19]", "result": "> 100", "unit": "µM"},
      {"measurement": "TGI", "setting": "[20]", "result": "> 100", "unit": "µM"},
      {"measurement": "TGI", "setting": "[21]", "result": "> 100", "unit": "µM"},
      {"measurement": "TGI", "setting": "[52]", "result": "> 100", "unit": "µM"},
      {"measurement": "TGI", "setting": "[53]", "result": "> 100", "unit": "µM"},
      {"measurement": "TGI", "setting": "[54]", "result": 12.4, "unit": "µM"},
      {"measurement": "TGI", "setting": "[22]", "result": "> 100", "unit": "µM"},
      {"measurement": "TGI", "setting": "[55]", "result": "> 100", "unit": "µM"},
      {"measurement": "TGI", "setting": "[56]", "result": 77.7, "unit": "µM"},
      {"measurement": "TGI", "setting": "[57]", "result": "> 100", "unit": "µM"},
      {"measurement": "TGI", "setting": "[58]", "result": "> 100", "unit": "µM"},
      {"measurement": "TGI", "setting": "[23]", "result": "> 100", "unit": "µM"},
      {"measurement": "TGI", "setting": "[24]", "result": "> 100", "unit": "µM"},
      {"measurement": "TGI", "setting": "[25]", "result": "> 100", "unit": "µM"}
    ]}
  ]
}
